Reference: patent US20230218581A1, “COMPOSITIONS AND METHODS COMPRISING DENDRIMERS AND THERAPEUTIC AGENTS” (The Johns Hopkins University, priority 2020, published 2023)

Experiments:
mouse primary glia = experiment: exosome release from glial cells, nanoparticle tracking analysis; format: cell-based; conditions: glia activated by FBS, 0.03-100 μM, two hours after treatment
[1] = Phase I metabolic stability, mouse liver microsomes; format: in vitro ADME; conditions: at 1 hr
Method: (§1) The in vitro and in vivo pharmacokinetic properties of DPTIP were evaluated.
(§2) ; FIG. 6C) administration in mice were not optimal (F<5%, AUCbrain/plasma ratio <0.2).

P38b/MAPK11 = P38b/MAPK11 (Homo sapiens, UniProt Q15759); experiment: p38 MAP kinase profiling, P38b; conditions: DPTIP tested at 0.001-100 μM
[2] = Phase I metabolic stability, human liver microsomes; format: in vitro ADME; conditions: at 1 hr
Method: as §1, §2

acid sphingomyelinase = target: T1, acid sphingomyelinase (Homo sapiens, UniProt P17405); experiment: selectivity: acid sphingomyelinase inhibition
T1 sequence (P17405 47-631): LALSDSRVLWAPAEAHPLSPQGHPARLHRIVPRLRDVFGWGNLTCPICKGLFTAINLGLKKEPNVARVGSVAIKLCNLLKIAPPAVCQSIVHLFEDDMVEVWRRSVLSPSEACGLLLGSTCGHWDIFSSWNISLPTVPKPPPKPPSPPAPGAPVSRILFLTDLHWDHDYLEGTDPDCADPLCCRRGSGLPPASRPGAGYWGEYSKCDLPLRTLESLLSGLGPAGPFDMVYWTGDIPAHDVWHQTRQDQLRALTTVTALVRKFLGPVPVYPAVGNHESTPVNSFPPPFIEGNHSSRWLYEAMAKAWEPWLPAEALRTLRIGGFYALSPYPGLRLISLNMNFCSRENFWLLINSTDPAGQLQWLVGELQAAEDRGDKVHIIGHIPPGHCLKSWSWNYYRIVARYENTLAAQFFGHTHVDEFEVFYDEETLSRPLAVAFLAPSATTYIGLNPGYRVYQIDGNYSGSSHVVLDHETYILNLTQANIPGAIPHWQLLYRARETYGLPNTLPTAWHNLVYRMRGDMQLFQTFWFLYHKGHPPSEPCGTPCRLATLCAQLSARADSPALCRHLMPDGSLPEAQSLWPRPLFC

horizontal brain slices = experiment: voltage traces from brain slices on multielectrode array; conditions: pre and post 10 μM treatment
P38d/MAPK13 = target: T2, P38d/MAPK13 (Homo sapiens, UniProt O15264); experiment: p38 MAP kinase profiling, P38d; format: biochemical; conditions: DPTIP tested at 0.001-100 μM
T2 sequence (O15264 1-365): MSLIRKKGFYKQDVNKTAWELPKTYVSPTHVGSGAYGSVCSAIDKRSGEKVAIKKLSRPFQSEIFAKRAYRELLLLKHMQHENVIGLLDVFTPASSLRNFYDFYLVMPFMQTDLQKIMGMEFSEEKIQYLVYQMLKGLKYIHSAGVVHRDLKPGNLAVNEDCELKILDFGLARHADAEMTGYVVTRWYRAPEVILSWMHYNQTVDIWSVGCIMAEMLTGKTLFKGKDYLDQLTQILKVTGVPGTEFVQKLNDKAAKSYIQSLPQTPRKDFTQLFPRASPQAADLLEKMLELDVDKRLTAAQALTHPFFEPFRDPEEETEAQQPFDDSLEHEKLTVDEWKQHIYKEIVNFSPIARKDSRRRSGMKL

[3] = 759 bioassays; cited from earlier work
[4] = test system: synaptic proteins (PSD-95, NR2A, GluR1); experiment: synaptic protein levels after nSMase2 inhibitor treatment; format: in vivo; conditions: 10 mg/kg daily; intraperitoneal
[5] = DPTIP pharmacokinetics in mice; format: in vivo
Method: as §1, §2

P38g = target: T3, P38g (Homo sapiens, UniProt P53778); experiment: p38 MAP kinase profiling, P38g; conditions: DPTIP tested at 0.001-100 μM
T3 sequence (P53778 1-367): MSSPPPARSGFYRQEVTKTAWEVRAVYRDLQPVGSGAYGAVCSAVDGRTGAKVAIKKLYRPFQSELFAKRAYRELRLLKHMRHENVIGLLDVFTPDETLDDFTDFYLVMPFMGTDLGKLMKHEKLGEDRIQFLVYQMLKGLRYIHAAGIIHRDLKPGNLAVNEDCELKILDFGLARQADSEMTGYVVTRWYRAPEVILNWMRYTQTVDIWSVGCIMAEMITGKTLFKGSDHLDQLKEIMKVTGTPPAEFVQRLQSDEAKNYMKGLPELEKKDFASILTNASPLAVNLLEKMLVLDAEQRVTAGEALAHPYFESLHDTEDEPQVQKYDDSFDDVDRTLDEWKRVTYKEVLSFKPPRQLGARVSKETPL

alkaline phosphatase = experiment: selectivity: alkaline phosphatase inhibition; format: biochemical
[6] = phase II glucuronidation stability; format: in vitro ADME; conditions: at 1 hr
From the text: as §2

P38a/MAPK14 = P38a/MAPK14 (Homo sapiens, UniProt Q16539); experiment: p38 MAP kinase profiling, P38a; conditions: DPTIP tested at 0.001-100 μM
[7] = DPTIP brain penetration in AD mice (3xTg); format: in vivo; conditions: mouse, brain/plasma, ip; AD mice (3×Tg), 10 mg/kg i.p.
From the text: as §2

[8] = test system: human immunodeficiency virus (HIV); conditions: cited from earlier work

Chain of P38a/MAPK14 (Q16539 whole entry): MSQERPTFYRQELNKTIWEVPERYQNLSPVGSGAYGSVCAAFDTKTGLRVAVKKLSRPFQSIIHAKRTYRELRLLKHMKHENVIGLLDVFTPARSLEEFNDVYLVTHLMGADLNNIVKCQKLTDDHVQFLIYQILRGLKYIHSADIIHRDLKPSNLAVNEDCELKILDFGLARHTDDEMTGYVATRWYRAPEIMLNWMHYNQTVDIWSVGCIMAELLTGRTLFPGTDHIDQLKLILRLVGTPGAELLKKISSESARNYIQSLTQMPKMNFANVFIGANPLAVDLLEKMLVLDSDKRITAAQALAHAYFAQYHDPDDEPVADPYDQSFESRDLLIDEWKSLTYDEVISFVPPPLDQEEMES
Chain of P38b/MAPK11 (Q15759 whole entry): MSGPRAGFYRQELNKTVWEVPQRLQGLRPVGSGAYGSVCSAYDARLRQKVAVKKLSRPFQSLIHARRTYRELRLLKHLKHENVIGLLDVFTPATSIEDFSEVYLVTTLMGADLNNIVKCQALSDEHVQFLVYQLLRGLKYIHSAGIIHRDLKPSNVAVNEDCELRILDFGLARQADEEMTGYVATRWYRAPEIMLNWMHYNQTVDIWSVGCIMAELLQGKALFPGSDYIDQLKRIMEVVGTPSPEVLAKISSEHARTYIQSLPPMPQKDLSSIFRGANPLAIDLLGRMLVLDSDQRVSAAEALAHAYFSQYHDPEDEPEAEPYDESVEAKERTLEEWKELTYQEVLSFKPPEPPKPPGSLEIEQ

| SMILES | exosome release (mouse primary glia) | % remaining (CYP-dependent oxidation) [1] [%] | IC50 (M) (P38b/MAPK11) | % remaining (CYP-dependent oxidation) [2] [%] | IC50 (acid sphingomyelinase) [µM] | differences in voltage traces (neuronal function) (horizontal brain slices) | IC50 (M) (P38d/MAPK13) | share of assays with weak activity (μM) [3] [%] | effect on PSD95 or NR2A [4] | levels of DPTIP post-administration ([5]; 2-he post-administration) | Kp ([5]; mouse, brain/plasma, 10 mg/kg PO, read-out: AUCbrain/plasma ratio) | clearance ([5]; mouse, plasma, oral, 10 mg/kg, read-out: clearance Clapp) [mL/min/kg] | half-life ([5]; mouse, plasma, oral, 10 mg/kg, read-out: plasma half-life t½ (converted)) [min] | bioavailability ([5]; mouse, plasma, 10 mg/kg PO, read-out: oral bioavailability F) [%] | IC50 (M) (P38g) | IC50 (alkaline phosphatase) [µM] | % remaining (phase II glucuronidation) [6] [%] | IC50 (M) (P38a/MAPK14) | Kp [7] | dendritic cell-mediated infection of healthy CD4+ T lymphocytes [8] |
| --- | --- | --- | --- | --- | --- | --- | --- | --- | --- | --- | --- | --- | --- | --- | --- | --- | --- | --- | --- | --- |
| COc1cc(OC)cc(-c2nc(-c3cccs3)c(-c3ccccc3)[nH]2)c1 [des-hydroxyl analog, reference compound] | no effect | – | – | – | – | – | – | – | – | – | – | – | – | – | – | – | – | – | – | – |
| COc1cc(-c2nc(-c3cccs3)c(-c3ccccc3)[nH]2)cc(OC)c1O [DPTIP, 2,6-dimethoxy-4-(5-phenyl-4-(thiophen-2-yl)-1H-imidazol-2-yl) phenol] | inhibited exosome release in a dose-dependent manner | 100 | not quantifiable | 100 | > 100 | No significant differences | not quantifiable | < 2.5 | no significant effect | undetectable | < 0.2 | 92 | ~30 | < 5 | not quantifiable | > 100 | > 50 | not quantifiable | < 0.2 | – |
| CCCCCCCCCC(=O)N[C@H](CO)C(=O)NC1=CC2(CO2)C(=O)C=C1 (stereo partly drawn) [spiroepoxide] | – | – | – | – | – | – | – | – | – | – | – | – | – | – | – | – | – | – | – | reduced |
